Data as given in patent publication US8796297B2, “4-substituted-2-amino-pyrimidine derivatives” (AbbVie Inc., priority 2009, dated 2014).
Where a name gives a salt, the structure may show the parent alone.

Experiments:
[1] = target: T1, human histamine H3 receptor (Homo sapiens (Human), UniProt Q9Y5N1); assay: Radioligand competition binding assay, human H3 receptor; conditions: [3H]-N-α-methylhistamine competition binding
[2] = target: T2, rat histamine H3 receptor (Rattus norvegicus (Rat), UniProt Q9QYN8); assay: Radioligand competition binding assay, rat H3 receptor; conditions: [3H]-N-α-methylhistamine competition binding
Description: To determine the effectiveness of representative compounds of this invention as histamine-3 receptor ligands (H3 receptor ligands), the following tests were conducted according to previously described methods (see European Journal of Pharmacology 1990, 188, 219-227; Journal of Pharmacology and Experimental Therapeutics 1995, 275, 598-604; Journal of Pharmacology and Experimental Therapeutics 1996, 276, 1009-1015; and Biochemical Pharmacology 1973, 22, 3099-3108).
The rat H3 receptor was cloned and expressed in cells, and competition binding assays carried out, according to methods previously described (see Esbenshade, et al. Journal of Pharmacology and Experimental Therapeutics 2005, 313, 165-175; Esbenshade et al., Biochemical Pharmacology 2004, 68, 933-945; and Krueger, et al. Journal of Pharmacology and Experimental Therapeutics 2005, 314, 271-281). Membranes were prepared from C6 or HEK293 cells, expressing the rat histamine H3 receptor, by homogenization on ice in TE buffer (50 mM Tris-HCl buffer, pH 7.4, containing 5 mM EDTA), 1 mM benzamidine, 2 μg/ml aprotinin, 1 μg/ml leupeptin, and 1 μg/ml pepstatin. The homogenate was centrifuged at 40,000 g for 20 minutes at 4° C. This step was repeated, and the resulting pellet was resuspended in TE buffer. Aliquots were frozen at −70° C. until needed. On the day of assay, membranes were thawed and diluted with TE buffer.
Membrane preparations were incubated with [^3H]-N-α-methylhistamine (0.5-1.0 nM) in the presence or absence of increasing concentrations of ligands for H3 receptor competition binding. The binding incubations were conducted in a final volume of 0.5 ml TE buffer at 25° C. and were terminated after 30 minutes. Thioperamide (30 μM) was used to define non-specific binding. All binding reactions were terminated by filtration under vacuum onto polyethylenimine (0.3%) presoaked Unifilters (Perkin Elmer Life Sciences) or Whatman GF/B filters followed by three brief washes with 2 ml of ice-cold TE buffer. Bound radiolabel was determined by liquid scintillation counting. For all of the radioligand competition binding assays, IC50 values and Hill slopes were determined by Hill transformation of the data and pKi values were determined by the Cheng-Prusoff equation.

[3] = target: T1, human histamine H3 receptor; assay: FLIPR functional assay (Ca2+, HEK-293 cells coexpressing Gαqi5), human H3 receptor; assay type: cell-based; conditions: for EC50: FLIPR agonist potency; for Emax: HEK293, FLIPR, percentage of the response to 1 μM RAMH, read-out: Human Maximum (%)
Text: (§1) There are many methods available to show the effectiveness of compounds as histamine H3 receptor ligands. Histamine H3 receptors from mammalian species have been cloned. Methods to clone, express, and assess the potency and functional activity of such cloned genes are well known to those skilled in the art of molecular biology. […] In the present case, to determine the potency and effectiveness of representative compounds of this invention as histamine-H3 receptor ligands (H3 receptor ligands), the following tests were conducted according to previously described methods (see Esbenshade, et al., Journal of Pharmacology and Experimental Therapeutics 2003, 305, 887-896, Esbenshade, et al., Biochemical Pharmacology 2004, 68, 933-945, and in Krueger, et al., Journal of Pharmacology and Experimental Therapeutics 2005, 314, 271-281): histamine H3 receptors were cloned and stably expressed in HEK-293 (human embryonic kidney) cells coexpressing a Gαqi5. Before testing, cells were loaded with a Ca^+2 sensitive fluorescent dye, in this case Fluo-4. For partial agonist or full agonist ligands, addition of compound to the cells led to an increase in intracellular Ca^+2 which was detected by FLIPR (Fluorescence Imaging Plate Reader; Molecular Devices, Sunnyvale, Calif.) technology. The fluorescence intensities measured before addition of the test compound were subtracted from the fluorescence intensities at later time points. Peak response values determined at each concentration of ligand were expressed as a percentage of the response obtained with a maximal concentration (1 μM) of the full agonist R-α-methyl-histamine (RAMH). Concentration versus response data were analyzed to obtain compound potency as EC50 values for full and partial agonists.

[4] = target: human H3R (Homo sapiens (Human), UniProt Q9Y5N1); assay: GTPγS functional assay, membranes from HEK cells expressing the human H3R; assay type: biochemical; conditions: for Emax: 5 min, [35S]GTPγS bound as percentage of basal, read-out: Human Maximum (%); for EC50: GTPγS agonist potency
Description: (§2) Membranes from HEK cells expressing the human H3R, or from C6 cells expressing the rat H3R, were prepared by homogenization in cold buffer containing 50 mM Tris-HCl (pH 7.4), 5 mM EDTA, 10 mM MgCl2, 1 mM benzamidine, 2 μg/ml aprotinin, 1 μg/ml leupeptin, and 1 μg/ml pepstatin. The homogenate was centrifuged at 40,000 g for 20 min at 4° C., and the resulting pellet was resuspended in 50 mM Tris-HCl (pH 7.4), 5 mM EDTA, and 10 mM MgCl2 and homogenized. Glycerol and bovine serum albumin were added to a final concentration of 10% glycerol and 1% bovine serum albumin. Membranes were diluted in GTPγS assay buffer (25 mM HEPES, 2.5 mM MgCl2, and 75 mM NaCl, pH 7.4) and 10 μg of membrane protein was incubated in a 96-well deep-well block in the presence of 5.0 μM unlabeled GDP, approximately 0.5 nM of [^35S]GTPγS, and increasing concentrations of test compounds. Samples were incubated at 37° C. for 5 min and the assays were terminated by the addition of cold buffer (50 mM Tris-HCl, 75 mM NaCl, and 2.5 mM MgCl2, pH 7.6) and subsequent harvesting onto a Packard Unifilter 96-well GF/B plate followed by extensive washing. Microscint 20 (PerkinElmer Life Sciences) was added to the samples, and bound [^35S]GTPγS was determined using the Topcount (Perkin Elmer Life Sciences). The percentage of [^35S]GTPγS bound in each sample was calculated as a percentage of that bound to control samples incubated in the absence of the H3R agonists (basal). Data were analyzed from experiments performed in triplicate using GraphPad Prism to obtain pEC50 values, Hill slopes, and maximal % response.

[5] = target: rat H3R (Rattus norvegicus (Rat), UniProt Q9QYN8); assay: GTPγS functional assay, membranes from C6 cells expressing the rat H3R; assay type: biochemical; conditions: for Emax: 5 min, read-out: Rat Maximum (%); for EC50: GTPγS agonist potency
Description: as §2

[6] = target: T2, rat histamine H3 receptor; assay: FLIPR functional assay (Ca2+, HEK-293 cells coexpressing Gαqi5), rat H3 receptor; assay type: cell-based; conditions: for EC50: FLIPR agonist potency; for Rat Maximum (%): FLIPR, percentage of the response to 1 μM RAMH
Text: as §1

[7] = [35S]GTPγS bound as percentage of basal

T1 sequence (Q9Y5N1 whole entry): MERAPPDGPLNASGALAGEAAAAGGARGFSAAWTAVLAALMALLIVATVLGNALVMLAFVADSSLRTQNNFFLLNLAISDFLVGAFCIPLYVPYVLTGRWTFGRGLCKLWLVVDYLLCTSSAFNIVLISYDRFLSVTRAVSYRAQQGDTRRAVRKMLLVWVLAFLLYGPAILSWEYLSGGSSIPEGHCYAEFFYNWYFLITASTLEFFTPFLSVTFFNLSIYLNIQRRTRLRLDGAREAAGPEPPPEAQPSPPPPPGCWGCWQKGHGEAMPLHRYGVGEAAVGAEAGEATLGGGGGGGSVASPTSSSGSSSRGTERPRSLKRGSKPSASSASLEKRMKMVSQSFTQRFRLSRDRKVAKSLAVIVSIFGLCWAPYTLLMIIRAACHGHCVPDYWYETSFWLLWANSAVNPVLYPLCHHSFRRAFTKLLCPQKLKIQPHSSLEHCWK
Chain of human H3R (Q9Y5N1 whole entry): as above
Chain of rat H3R (Q9QYN8 whole entry): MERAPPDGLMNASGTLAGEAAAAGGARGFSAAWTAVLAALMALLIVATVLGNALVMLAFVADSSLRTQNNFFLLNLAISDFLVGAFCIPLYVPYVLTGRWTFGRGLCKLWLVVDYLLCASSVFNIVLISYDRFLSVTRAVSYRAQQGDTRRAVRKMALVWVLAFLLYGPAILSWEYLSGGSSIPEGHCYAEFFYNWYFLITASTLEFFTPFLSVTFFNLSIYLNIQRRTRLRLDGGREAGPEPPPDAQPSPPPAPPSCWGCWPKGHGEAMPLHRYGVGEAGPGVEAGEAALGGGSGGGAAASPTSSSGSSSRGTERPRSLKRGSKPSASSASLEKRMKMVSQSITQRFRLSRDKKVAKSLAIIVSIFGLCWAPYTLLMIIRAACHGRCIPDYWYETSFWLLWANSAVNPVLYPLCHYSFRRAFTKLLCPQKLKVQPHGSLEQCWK
T2 sequence (Q9QYN8 whole entry): as above

SMILES	Ki [1]	Ki [2]	EC50 [3]	Emax [3]	Emax [4]	EC50 [4]	Emax [5, 7]	EC50 [5]	EC50 [6]	Rat Maximum (%) [6]	Rat Maximum (%) [5, 7]
CN(C)CCNc1ccnc(N)n1 [Example 2, N^4-(2-(dimethylamino)ethyl)pyrimidine-2,4-diamine 2,2,2-trifluoroacetate]	53.7 nM	20 nM	85.1 nM	77.7%	160%	525 nM	183%	339 nM			
CN(CCCN)c1ccnc(N)n1 [Example 8, N^4-(3-aminopropyl)-N^4-methylpyrimidine-2,4-diamine dihydrochloride]	316 nM	195 nM									
Nc1nccc(N2C[C@H]3CN(Cc4ccccc4)C[C@H]3C2)n1 [Example 19, 4-((3aR,6aS)-5-benzylhexahydropyrrolo[3,4-c]pyrrol-2(1H)-yl)pyrimidin-2-amine]	158 nM	170 nM	2110 nM	50.2%			116%	447 nM			
C[C@@H](N)Cc1c[nH]cn1 [R-α-methyl-histamine (RAMH), R-α-methyl-histamine, reference compound]					240%		224%				
CC(C)(C)OC(=O)N1CCC(CNc2ccnc(N)n2)CC1 [Example 15, tert-butyl 4-((2-aminopyrimidin-4-ylamino)methyl)piperidine-1-carboxylate]	> 355 nM	> 331 nM	43.6 nM	39%	117%	4790 nM	138%	7410 nM			
Nc1nccc(NC2CCNCC2)n1 [Example 24, N^4-(piperidin-4-yl)pyrimidine-2,4-diamine dihydrochloride]	324 nM	105 nM									
CC(C)(C)OC(=O)N1CC[C@@H](Nc2ccnc(N)n2)C1 [Example 17, (R)-tert-butyl 3-(2-aminopyrimidin-4-ylamino)pyrrolidine-1-carboxylate]	> 363 nM	> 339 nM					130%	2340 nM	4790 nM	75.8%	
Nc1nccc(N2CCNCC2)n1 [Example 25, 4-(piperazin-1-yl)pyrimidin-2-amine dihydrochloride]	24 nM	5.75 nM			150%	132 nM	141%	30.2 nM			
NCCCNc1ccnc(N)n1 [Example 6, N^4-(3-aminopropyl)pyrimidine-2,4-diamine dihydrochloride]	61.7 nM	13.2 nM	13.4 nM	93%	162%	537 nM	168%	309 nM			
CN(C)CCN(C)c1ccnc(N)n1 [Example 3, N^4-(2-(dimethylamino)ethyl)-N^4-methylpyrimidine-2,4-diamine dihydrochloride]	257 nM	> 309 nM									
Nc1nccc(NC2CCN(Cc3ccccc3)CC2)n1 [Example 12, N^4-(1-benzylpiperidin-4-yl)pyrimidine-2,4-diamine 2,2,2-trifluoroacetate]	72.4 nM	24.5 nM			139%	871 nM	136%	324 nM			
CN1CCN(c2ccnc(N)n2)CC1 [Example 13, 4-(4-methylpiperazin-1-yl)pyrimidin-2-amine]	13.8 nM	7.41 nM			127%	129 nM	135%	53.7 nM			
CNCCCNc1ccnc(N)n1 [Example 7, N^4-(3-(methylamino)propyl)pyrimidine-2,4-diamine dihydrochloride]	28.2 nM	81.3 nM									
CC(C)(C)OC(=O)N1CCN(c2ccnc(N)n2)CC1 [Example 14, tert-butyl 4-(2-aminopyrimidin-4-yl)piperazine-1-carboxylate]	> 380 nM	> 355 nM	316 nM	67.6%							
CN(C)CCCN(C)c1ccnc(N)n1.O=C(O)C(O)C(O)C(=O)O [Example 9, N^4-(3-(dimethylamino)propyl)-N^4-methylpyrimidine-2,4-diamine(2R,3R)-2,3-dihydroxysuccinate]	182 nM	> 309 nM						1950 nM			110%
Nc1nccc(N2CCCN(Cc3ccccc3)CCC2)n1 [Example 21, 4-(5-benzyl-1,5-diazocan-1-yl)pyrimidin-2-amine]	162 nM	55 nM			120%	115 nM	135%	214 nM			
Nc1nccc(NC2CNC2)n1 [Example 22, N^4-(azetidin-3-yl)pyrimidine-2,4-diamine trihydrochloride]	33.1 nM	97.7 nM			216%	457 nM	156%	676 nM			
Nc1nccc(N2CCC3(CC2)CNC3)n1 [Example 23, 4-(2,7-diazaspiro[3.5]nonan-7-yl)pyrimidin-2-amine trihydrochloride]	67.6 nM	12.3 nM			147%	513 nM	126%	110 nM			
CC(C)(CN)CNc1ccnc(N)n1 [Example 11, N^4-(3-amino-2,2-dimethylpropyl)pyrimidine-2,4-diamine]	> 339 nM	> 316 nM			111%	5750 nM					
Cl.Cl.Nc1nccc(N[C@@H]2CCNC2)n1 [Example 18, (R)—N^4-(pyrrolidin-3-yl)pyrimidine-2,4-diamine dihydrochloride]	> 363 nM	162 nM			179%	2510 nM	162%	1620 nM	74 nM	78.6%	
